Reference: ChEMBL document CHEMBL5505979, “Novel aminothiazoximone-corbelled ethoxycarbonylpyrimidones with antibiofilm activity to conquer Gram-negative bacteria through potential multitargeting effects” (Eur J Med Chem, 2024)
≈ marks a conversion by molar mass, not a printed value. Where “and” joins values, the source holds several entries; their conditions need not be identical. Equal entries are not always repeated.

Legend:
Assay type in all cases: functional
Staphylococcus aureus [1] = assay: Anti-bacterial activity against methicillin-resistant Staphylococcus aureus N315 assessed as inhibition of bacterial growth
Staphylococcus aureus [2] = assay: Anti-bacterial activity against Staphylococcus aureus ATCC 12600 assessed as inhibition of bacterial growth
Candida parapsilosis = assay: Anti-fungal activity against Candida parapsilosis assessed as inhibition of fungal growth
Candida albicans [3] = assay: Anti-fungal activity against Candida albicans assessed as inhibition of fungal growth
Pseudomonas aeruginosa [4] = assay: Anti-bacterial activity against Pseudomonas aeruginosa ATCC 27853 assessed as inhibition of bacterial growth
Enterococcus faecalis = assay: Anti-bacterial activity against Enterococcus faecalis V583 assessed as inhibition of bacterial growth
Klebsiella pneumoniae = assay: Anti-bacterial activity against Klebsiella pneumoniae KPN325 assessed as inhibition of bacterial growth
Staphylococcus aureus [5] = assay: Anti-bacterial activity against Staphylococcus aureus CMCC (B) 26003 assessed as inhibition of bacterial growth
Acinetobacter baumannii = assay: Anti-bacterial activity against Acinetobacter baumannii R674 assessed as inhibition of bacterial growth
Staphylococcus aureus [6] = assay: Anti-bacterial activity against Staphylococcus aureus ATCC 25923 assessed as inhibition of bacterial growth
Candida tropicalis = assay: Anti-fungal activity against Candida tropicalis assessed as inhibition of fungal growth
Escherichia coli [7] = assay: Anti-bacterial activity against Escherichia coli JM109 assessed as inhibition of bacterial growth
Staphylococcus aureus [8] = assay: Anti-bacterial activity against methicillin-resistant Staphylococcus aureus ATCC 43300 assessed as inhibition of bacterial growth
Staphylococcus aureus [9] = assay: Anti-bacterial activity against Staphylococcus aureus ATCC 29213 assessed as inhibition of bacterial growth
Pseudomonas aeruginosa [10] = assay: Anti-bacterial activity against Pseudomonas aeruginosa ST235 assessed as inhibition of bacterial growth
Pseudomonas aeruginosa [11] = assay: Anti-bacterial activity against Pseudomonas aeruginosa ATCC 15442 assessed as inhibition of bacterial growth
Escherichia coli [12] = assay: Anti-bacterial activity against Escherichia coli ATCC 25922 assessed as inhibition of bacterial growth
Staphylococcus aureus [13] = assay: Anti-bacterial activity against Staphylococcus aureus ATCC 1708 assessed as inhibition of bacterial growth
Pseudomonas aeruginosa [14] = assay: Anti-bacterial activity against Pseudomonas aeruginosa ATCC 9027 assessed as inhibition of bacterial growth
Candida albicans [15] = assay: Anti-fungal activity against Candida albicans 90023 assessed as inhibition of fungal growth
Staphylococcus aureus [16] = assay: Anti-bacterial activity against Staphylococcus aureus ATCC 6538 assessed as inhibition of bacterial growth
Pseudomonas aeruginosa [17] = assay: Anti-bacterial activity against Pseudomonas aeruginosa CMCC (B) 10104 assessed as inhibition of bacterial growth
Staphylococcus aureus [18] = assay: Anti-bacterial activity against Staphylococcus aureus CMCC (B) 26001 assessed as inhibition of bacterial growth
[19] = Staphylococcus aureus, N315, read-out: MIC
[20] = Staphylococcus aureus, ATCC 12600, read-out: MIC
[21] = Lodderomyces parapsilosis, read-out: MIC
[22] = Candida albicans, read-out: MIC
[23] = Pseudomonas aeruginosa, ATCC 27853, read-out: MIC
[24] = Klebsiella pneumoniae, KPN325, read-out: MIC
[25] = Staphylococcus aureus, ATCC 25923, read-out: MIC
[26] = Candida tropicalis, read-out: MIC
[27] = Staphylococcus aureus, ATCC 43300, read-out: MIC
[28] = Staphylococcus aureus, ATCC 29213, read-out: MIC
[29] = Pseudomonas aeruginosa, ST235, read-out: MIC
[30] = Pseudomonas aeruginosa, ATCC 15442, read-out: MIC
[31] = Staphylococcus aureus, ATCC 1708, read-out: MIC
[32] = Pseudomonas aeruginosa, CMCC (B) 10104, read-out: MIC

SMILES | MIC (Staphylococcus aureus [2]; [20]) [µM] | MIC (Candida parapsilosis; [21]) [µM] | MIC (Candida albicans [3]; [22]) [µM] | MIC (Pseudomonas aeruginosa [4]; [23]) [µM] | MIC (Enterococcus faecalis) [µM] | MIC (Klebsiella pneumoniae; [24]) [µM] | MIC (Staphylococcus aureus [5]) [µM] | MIC (Acinetobacter baumannii) [µM] | MIC (Staphylococcus aureus [6]; [25]) [µM] | MIC (Candida tropicalis; [26]) [µM] | MIC (Escherichia coli [7]) [µM] | MIC (Staphylococcus aureus [9]; [28]) [µM] | MIC (Pseudomonas aeruginosa [10]; [29]) [µM] | MIC (Pseudomonas aeruginosa [11]; [30]) [µM] | MIC (Escherichia coli [12]) [µM] | MIC (Staphylococcus aureus [13]; [31]) [µM] | MIC (Pseudomonas aeruginosa [14]) [µM] | MIC (Candida albicans [15]) [µM] | MIC (Staphylococcus aureus [16]) [µM] | MIC (Pseudomonas aeruginosa [17]; [32]) [µM] | also measured
CCCCc1nc(Cl)c(C2NC(=O)NC(CN3CCN(CC(=O)c4nccs4)CC3)=C2C(=O)OCC)[nH]1 (stereo not given) | 58 (≈ 31.9 µg/mL) | 466 (≈ 256 µg/mL) | 466 (≈ 256 µg/mL) | 58 (≈ 31.9 µg/mL) | 117 (≈ 64.4 µg/mL) | 117 (≈ 64.4 µg/mL) | 117 (≈ 64.4 µg/mL) | 58 (≈ 31.9 µg/mL) | 29 (≈ 16 µg/mL) | 466 (≈ 256 µg/mL) | 58 (≈ 31.9 µg/mL) | 58 (≈ 31.9 µg/mL) | 58 (≈ 31.9 µg/mL) | 58 (≈ 31.9 µg/mL) | 58 (≈ 31.9 µg/mL) | 117 (≈ 64.4 µg/mL) | 58 (≈ 31.9 µg/mL) | 29 (≈ 16 µg/mL) | 29 (≈ 16 µg/mL) | 58 (≈ 31.9 µg/mL) | MIC (Staphylococcus aureus [1]; [19]): 117 µM (≈ 64.4 µg/mL); MIC (Staphylococcus aureus [8]; [27]): 58 µM (≈ 31.9 µg/mL); MIC (Staphylococcus aureus [18]): 15 µM (≈ 8.25 µg/mL)
CCOC(=O)C1=C(CN2CCN(C(=O)/C(=N/OC)c3csc(N)n3)CC2)NC(=O)NC1c1ccc(F)cc1 (stereo not given) | 59 (≈ 32.2 µg/mL) | 447 (≈ 244 µg/mL) | 447 (≈ 244 µg/mL) | 117 (≈ 63.8 µg/mL) | 29 (≈ 15.8 µg/mL) | 117 (≈ 63.8 µg/mL) | 235 (≈ 128 µg/mL) | 59 (≈ 32.2 µg/mL) | 59 (≈ 32.2 µg/mL) | 447 (≈ 244 µg/mL) | 117 (≈ 63.8 µg/mL) | 59 (≈ 32.2 µg/mL) | 117 (≈ 63.8 µg/mL) | 59 (≈ 32.2 µg/mL) | 59 (≈ 32.2 µg/mL) | 117 (≈ 63.8 µg/mL) | 117 (≈ 63.8 µg/mL) | 6 (≈ 3.27 µg/mL) | 117 (≈ 63.8 µg/mL) | 117 (≈ 63.8 µg/mL) | MIC (Staphylococcus aureus [1]; [19]): 117 µM (≈ 63.8 µg/mL); MIC (Staphylococcus aureus [8]; [27]): 59 µM (≈ 32.2 µg/mL); MIC (Staphylococcus aureus [18]): 59 µM (≈ 32.2 µg/mL)
CCOC(=O)C1=C(CN2CCN(C(=O)/C(=N/OC)c3csc(N)n3)CC2)NC(=O)NC1c1ccc(O)c(Br)c1 (stereo not given) | 52 (≈ 32.4 µg/mL) | 415 (≈ 258 µg/mL) | 415 (≈ 258 µg/mL) | 52 (≈ 32.4 µg/mL) | 13 (≈ 8.09 µg/mL) | 52 (≈ 32.4 µg/mL) | 103 (≈ 64.1 µg/mL) | 26 (≈ 16.2 µg/mL) | 26 (≈ 16.2 µg/mL) | 415 (≈ 258 µg/mL) | 52 (≈ 32.4 µg/mL) | 52 (≈ 32.4 µg/mL) | 52 (≈ 32.4 µg/mL) | 52 (≈ 32.4 µg/mL) | 52 (≈ 32.4 µg/mL) | 103 (≈ 64.1 µg/mL) | 103 (≈ 64.1 µg/mL) | 104 (≈ 64.7 µg/mL) | 52 (≈ 32.4 µg/mL) | 103 (≈ 64.1 µg/mL) | MIC (Staphylococcus aureus [1]; [19]): 103 µM (≈ 64.1 µg/mL); MIC (Staphylococcus aureus [8]; [27]): 26 µM (≈ 16.2 µg/mL); MIC (Staphylococcus aureus [18]): 52 µM (≈ 32.4 µg/mL)
CCOC(=O)C1=C(CN2CCN(C(=O)/C(=N/OC)c3csc(N)n3)CC2)NC(=O)NC1c1ccc(Cl)cc1Cl (stereo not given) | 54 (≈ 32.2 µg/mL) | 449 (≈ 268 µg/mL) | 449 (≈ 268 µg/mL) | 54 (≈ 32.2 µg/mL) | 27 (≈ 16.1 µg/mL) | 108 (≈ 64.4 µg/mL) | 108 (≈ 64.4 µg/mL) | 27 (≈ 16.1 µg/mL) | 54 (≈ 32.2 µg/mL) | 449 (≈ 268 µg/mL) | 108 (≈ 64.4 µg/mL) | 108 (≈ 64.4 µg/mL) | 54 (≈ 32.2 µg/mL) | 54 (≈ 32.2 µg/mL) | 54 (≈ 32.2 µg/mL) | 54 (≈ 32.2 µg/mL) | 108 (≈ 64.4 µg/mL) | 449 (≈ 268 µg/mL) | 54 (≈ 32.2 µg/mL) | 54 (≈ 32.2 µg/mL) | MIC (Staphylococcus aureus [1]; [19]): 108 µM (≈ 64.4 µg/mL); MIC (Staphylococcus aureus [8]; [27]): 27 µM (≈ 16.1 µg/mL); MIC (Staphylococcus aureus [18]): 54 µM (≈ 32.2 µg/mL)
OC(Cn1cncn1)(Cn1cncn1)c1ccc(F)cc1F [FLUCONAZOLE] |  | 13 (≈ 3.98 µg/mL) | 13 (≈ 3.98 µg/mL) |  |  |  |  |  |  | 26 (≈ 7.96 µg/mL) |  |  |  |  |  |  |  | 7 (≈ 2.14 µg/mL) |  |  | 
CCOC(=O)C1=C(CN2CCN(C(=O)/C(=N/OC)c3csc(N)n3)CC2)NC(=O)NC1c1ccc(C#N)cc1 (stereo not given) | 58 (≈ 32.1 µg/mL) | 460 (≈ 254 µg/mL) | 460 (≈ 254 µg/mL) | 58 (≈ 32.1 µg/mL) | 29 (≈ 16 µg/mL) | 116 (≈ 64.1 µg/mL) |  | 29 (≈ 16 µg/mL) | 58 (≈ 32.1 µg/mL) | 460 (≈ 254 µg/mL) | 29 (≈ 16 µg/mL) | 58 (≈ 32.1 µg/mL) | 58 (≈ 32.1 µg/mL) | 58 (≈ 32.1 µg/mL) | 29 (≈ 16 µg/mL) | 58 (≈ 32.1 µg/mL) | 58 (≈ 32.1 µg/mL) | 115 (≈ 63.6 µg/mL) | 58 (≈ 32.1 µg/mL) | 58 (≈ 32.1 µg/mL) | MIC (Staphylococcus aureus [18]): 232 µM (≈ 128 µg/mL)
CCCCc1nc(Cl)c(C2NC(=O)NC(CN3CCN(CC(O)c4nccs4)CC3)=C2C(=O)OCC)[nH]1 (stereo not given) | 50 (≈ 27.6 µg/mL) | 455 (≈ 251 µg/mL) | 455 (≈ 251 µg/mL) |  |  | 199 (≈ 110 µg/mL) | 199 (≈ 110 µg/mL) |  | 50 (≈ 27.6 µg/mL) |  |  | 50 (≈ 27.6 µg/mL) | 199 (≈ 110 µg/mL) |  |  |  |  |  | 99 (≈ 54.7 µg/mL) | 199 (≈ 110 µg/mL) | MIC (Staphylococcus aureus [1]): 199 µM and 466 µM; MIC (Staphylococcus aureus [2]): 58 µM (≈ 32 µg/mL); MIC (Candida parapsilosis): 466 µM (≈ 257 µg/mL); MIC (Candida albicans [3]): 466 µM (≈ 257 µg/mL); MIC (Pseudomonas aeruginosa [4]): 50 µM and 116 µM; MIC (Klebsiella pneumoniae): 233 µM (≈ 129 µg/mL); MIC (Staphylococcus aureus [6]): 58 µM (≈ 32 µg/mL); MIC (Candida tropicalis): 227 µM and 466 µM; MIC (Staphylococcus aureus [8]): 50 µM and 116 µM; MIC (Staphylococcus aureus [9]): 58 µM (≈ 32 µg/mL); MIC (Pseudomonas aeruginosa [10]): 116 µM (≈ 64 µg/mL); MIC (Pseudomonas aeruginosa [11]): 50 µM and 116 µM; MIC (Staphylococcus aureus [13]): 99 µM and 233 µM; MIC (Pseudomonas aeruginosa [17]): 116 µM (≈ 64 µg/mL)
